The values that follow come from ChEMBL document CHEMBL1136113, “Synthesis and inhibitory activity of ubiquinone-acetogenin hybrid inhibitor with bovine mitochondrial complex I” (Bioorg Med Chem Lett, 2003).

The structures appear in SMILES notation.

This test deals with Mitochondrial complex I; NADH oxidoreductase (Bos taurus, UniProt P25708+P52505). The test can be described thus: Inhibition of complex I activity was determined by NADH oxidase assay using bovine heart submitochondrial particles. Type of test: protein-complex assay.
Sequence of Mitochondrial complex I; NADH oxidoreductase (P25708 21-464 limits assumed, other chains not shown): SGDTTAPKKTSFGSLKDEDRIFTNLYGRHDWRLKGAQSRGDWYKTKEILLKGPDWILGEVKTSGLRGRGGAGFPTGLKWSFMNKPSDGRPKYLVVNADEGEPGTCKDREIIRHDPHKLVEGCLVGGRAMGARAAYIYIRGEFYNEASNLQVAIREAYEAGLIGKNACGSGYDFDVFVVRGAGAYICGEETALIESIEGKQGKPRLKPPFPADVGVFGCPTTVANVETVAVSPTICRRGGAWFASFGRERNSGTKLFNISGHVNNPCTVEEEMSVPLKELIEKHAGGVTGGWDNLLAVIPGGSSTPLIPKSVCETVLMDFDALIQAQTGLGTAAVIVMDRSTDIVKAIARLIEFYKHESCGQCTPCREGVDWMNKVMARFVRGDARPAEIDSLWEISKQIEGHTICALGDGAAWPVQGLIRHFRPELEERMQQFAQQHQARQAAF

As to `CCCCCCCCCC[C@@H](O)[C@@H]1CC[C@@H]([C@@H]2CC[C@@H]([C@H](O)CCCCCCCCCC(O)CC3=CC(C)OC3=O)O2)O1` (stereo not given in full) [BULLATACIN], the IC50 (as a rule, the concentration at which inhibition is half-maximal) amounted to 0.9 nM.

For `CCCCCCCCCC[C@@H](O)[C@H]1CC[C@H]([C@H]2CC[C@H]([C@H](O)CCCCCCCCCCCCC3=C(C)C(=O)C(OC)=C(OC)C3=O)O2)O1`, it took 1.2 nM to reach half-maximal inhibition (IC50).

The compound `CCCCCCCCCC[C@@H](O)[C@H]1CC[C@H]([C@H]2CC[C@H]([C@H](O)CCCCCCCCCCCCc3c(C)c(OC)c(OC)c(OC)c3OC)O2)O1` gave an IC50 of 280 nM.

`CCCCCCCCCC[C@@H](O)[C@H]1CC[C@H]([C@H]2CC[C@H]([C@H](O)CCCCCCCCCCCCC3=C[C@H](C)OC3=O)O2)O1` [ISODESAACETYLUVARICIN] came in with an IC50 of 0.9 nM.

Consider `CCCCC[C@@H](O)[C@H]1CC[C@H]([C@H]2CC[C@H]([C@H](O)CCCCC)O2)O1`, for which 4500 nM corresponded to half-maximal inhibition (IC50).
